Reference: patent publication US10766884B2 (Pfizer Inc., priority 2018, dated 2020)
pKi: −log10 of the molar value. Blank lines part the entries; values can stand above or below the compound they belong to.

Assays:
[1] = molecular target: CDK6/Cyclin D3 (Homo sapiens (Human), UniProt Q00534); assay: CDK6/Cyclin D3 mobility shift assay; assay type: biochemical; settings: activated CDK6/Cyclin D3, 3.5 mM ATP, Morrison fit; read-out: CDK6_D3 Ki
Protocol: (§1) The purpose of the CDK6/Cyclin D3 assay is to evaluate the inhibition (% inhibition, Kiapp and Ki values) in the presence of small molecule inhibitors by using a fluorescence based microfluidic mobility shift assay. […] The mobility shift assay electrophoretically separates the fluorescently labeled peptides (substrate and phosphorylated product) following the kinase reaction. Both substrate and product are measured and the ratio of these values is used to generate % conversion of substrate to product by the LabChip EZ Reader.
The reaction was stopped after 95 minutes by the addition of 50 μL of 30 mM EDTA. Ki determinations were made from a plot of the fractional velocity as a function of inhibitor concentration fit to the Morrison equation with the enzyme concentration as a variable.
(§2) For CDK4 and CDK6 mobility shift assays, see also Morrison, J. F. (1969) Kinetics of the reversible inhibition of enzyme-catalysed reactions by tight-binding inhibitors, Biochimica et biophysica acta 185, 269-286; and Murphy, D. J. (2004) Determination of accurate KI values for tight-binding enzyme inhibitors: an in silico study of experimental error and assay design, Analytical biochemistry 327, 61-67.

[2] = molecular target: CDK4/Cyclin D1 (Homo sapiens (Human), UniProt P11802); assay: CDK4/Cyclin D1 mobility shift assay; assay type: biochemical; settings: activated CDK4/Cyclin D1, 3.5 mM ATP, Morrison fit; read-out: CDK4D1 Ki
Protocol: as §1, with “CDK4/Cyclin D1” for “of the CDK6/Cyclin D3”, “Conversion” for “conversion”
The reaction was stopped after 195 minutes by the addition of 50 μL of 30 mM EDTA. Ki determinations were made from a plot of the fractional velocity as a function of inhibitor concentration fit to the Morrison equation with the enzyme concentration as a variable.
as §2

Chain of CDK4/Cyclin D1 (P11802 whole entry): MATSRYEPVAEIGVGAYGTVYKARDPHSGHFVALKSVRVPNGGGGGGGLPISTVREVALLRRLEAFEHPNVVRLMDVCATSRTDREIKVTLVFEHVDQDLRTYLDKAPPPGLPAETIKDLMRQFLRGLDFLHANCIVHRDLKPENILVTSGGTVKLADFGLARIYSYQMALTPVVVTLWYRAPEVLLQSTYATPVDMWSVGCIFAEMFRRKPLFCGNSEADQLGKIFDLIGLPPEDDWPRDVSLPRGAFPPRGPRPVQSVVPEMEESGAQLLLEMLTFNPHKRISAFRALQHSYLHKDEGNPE
Chain of CDK4/Cyclin D1 (P24385 whole entry partner): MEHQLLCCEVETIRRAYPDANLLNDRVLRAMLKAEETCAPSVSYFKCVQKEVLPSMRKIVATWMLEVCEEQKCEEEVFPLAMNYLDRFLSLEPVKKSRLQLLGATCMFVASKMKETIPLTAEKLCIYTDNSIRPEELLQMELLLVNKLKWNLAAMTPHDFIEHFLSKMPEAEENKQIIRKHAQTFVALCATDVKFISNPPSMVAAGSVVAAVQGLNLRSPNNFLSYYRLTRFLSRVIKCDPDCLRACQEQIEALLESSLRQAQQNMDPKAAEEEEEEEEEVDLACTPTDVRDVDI
Chain of CDK6/Cyclin D3 (Q00534 whole entry): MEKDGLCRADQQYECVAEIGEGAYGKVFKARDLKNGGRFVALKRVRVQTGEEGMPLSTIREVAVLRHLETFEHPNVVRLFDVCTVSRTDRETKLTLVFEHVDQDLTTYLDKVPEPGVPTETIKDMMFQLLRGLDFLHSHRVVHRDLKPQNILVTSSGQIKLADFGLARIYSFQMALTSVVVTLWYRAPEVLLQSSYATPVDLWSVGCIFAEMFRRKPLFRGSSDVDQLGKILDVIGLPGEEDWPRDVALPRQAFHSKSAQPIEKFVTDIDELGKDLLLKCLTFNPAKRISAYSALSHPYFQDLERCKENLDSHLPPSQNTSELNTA
Chain of CDK6/Cyclin D3 (P30281 whole entry partner): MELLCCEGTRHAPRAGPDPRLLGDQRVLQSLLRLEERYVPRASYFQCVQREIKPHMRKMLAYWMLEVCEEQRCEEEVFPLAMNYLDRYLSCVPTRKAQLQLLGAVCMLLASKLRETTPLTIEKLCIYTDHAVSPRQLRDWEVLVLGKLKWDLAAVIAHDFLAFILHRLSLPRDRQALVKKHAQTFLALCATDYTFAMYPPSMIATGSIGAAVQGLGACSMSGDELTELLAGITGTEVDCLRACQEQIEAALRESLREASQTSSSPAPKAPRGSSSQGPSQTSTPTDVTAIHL

SMILES: CC(C)(O)c1nc2c(F)cc(-c3nc(N[C@@H]4CCOC[C@H]4O)ncc3Cl)cc2n1CC(F)F [Example A67, 1,5-anhydro-3-({5-chloro-4-[1-(2,2-difluoroethyl)-4-fluoro-2-(2-hydroxypropan-2-yl)-1H-benzimidazol-6-yl]pyrimidin-2-yl}amino)-2,3-dideoxy-D-threo-pentitol]
- pKi [1]: 7.81
- pKi [2]: 8.85

SMILES: Cc1nc2c(F)cc(-c3nc(N[C@@H]4CCN(S(C)(=O)=O)C[C@H]4O)ncc3Cl)cc2n1C [Example A08]
- pKi [1]: 8.32
- pKi [2]: 8.96

SMILES: CC(C)n1nnc2ccc(-c3nc(N[C@@H]4CCN(S(C)(=O)=O)C[C@H]4O)ncc3Cl)cc21 [Example A84, (3R,4R)-4-({5-chloro-4-[1-(propan-2-yl)-1H-benzotriazol-6-yl]pyrimidin-2-yl}amino)-1-(methanesulfonyl)piperidin-3-ol]
- pKi [1]: 7.52
- pKi [2]: 8.22

SMILES: CC(C)(F)Cn1c(CO)nc2c(F)cc(-c3nc(N[C@@H]4CCOC[C@H]4O)ncc3Cl)cc21 [Example A64, 1,5-anhydro-3-({5-chloro-4-[4-fluoro-1-(2-fluoro-2-methylpropyl)-2-(hydroxymethyl)-1H-benzimidazol-6-yl]pyrimidin-2-yl}amino)-2,3-dideoxy-D-threo-pentitol]
- pKi [1]: 7.97
- pKi [2]: 8.70

SMILES: CC1CNCc2nc3c(F)cc(-c4nc(N[C@@H]5CCOC[C@H]5O)ncc4Cl)cc3n21 (single isomer, unassigned) [Example A56, 1,5-anhydro-3-{[5-chloro-4-(9-fluoro-4-methyl-1,2,3,4-tetrahydropyrazino[1,2-a]benzimidazol-7-yl)pyrimidin-2-yl]amino}-2,3-dideoxy-D-threo-pentitol]
- pKi [1]: 8.02
- pKi [2]: 8.89

SMILES: CN1Cc2nc3c(F)cc(-c4nc(N[C@@H]5CCOC[C@H]5O)ncc4Cl)cc3n2C(C)(C)C1 [Example A22]
- pKi [1]: 7.30
- pKi [2]: 8.49

SMILES: CNC(=O)c1nc2c(F)cc(-c3nc(N[C@@H]4CCOC[C@H]4O)ncc3Cl)cc2n1C(C)C [Example A34]
- pKi [1]: 6.99
- pKi [2]: 7.95

Next, values leading:

- pKi [1]: 7.93
- pKi [2]: 8.82
SMILES: CC(C)n1cnc2c(F)cc(-c3nc(N[C@@H]4CCN(C(=O)C5(C)COC5)C[C@H]4O)ncc3Cl)cc21 [Example F19, [(3R,4R)-4-({5-chloro-4-[4-fluoro-1-(propan-2-yl)-1H-benzimidazol-6-yl]pyrimidin-2-yl}amino)-3-hydroxypiperidin-1-yl](3-methyloxetan-3-yl)methanone]

- pKi [1]: 6.90
- pKi [2]: 7.82
SMILES: Cc1nc2c(F)cc(-c3nc(N[C@H]4CCN(C)C[C@@H]4O)ncc3F)cc2n1C(C)C (single isomer, unassigned) [Example F07]

- pKi [1]: 7.64
- pKi [2]: 8.62
SMILES: CC(C)n1cnc2c(F)cc(-c3nc(N[C@@H]4CCN(C(=O)C[C@H](N)C(F)(F)F)C[C@H]4O)ncc3Cl)cc21 [Example F31, (3S)-3-amino-1-[(3R,4R)-4-({5-chloro-4-[4-fluoro-1-(propan-2-yl)-1H-benzimidazol-6-yl]pyrimidin-2-yl}amino)-3-hydroxypiperidin-1-yl]-4,4,4-trifluorobutan-1-one]

- pKi [1]: 7.57
- pKi [2]: 8.14
SMILES: CC(C)n1cnc2c(F)cc(-c3nc(N[C@@H]4CCN(S(C)(=O)=O)C[C@H]4O)ncc3C(F)(F)F)cc21 [Example B02, (3R,4R)-4-({4-[4-fluoro-1-(propan-2-yl)-1H-benzimidazol-6-yl]-5-(trifluoromethyl)pyrimidin-2-yl}amino)-1-(methanesulfonyl)piperidin-3-ol]

- pKi [1]: 8.23
- pKi [2]: 9.40
SMILES: CC(=O)c1nc2c(F)cc(-c3nc(N[C@@H]4CCN(S(C)(=O)=O)C[C@H]4O)ncc3Cl)cc2n1C(C)C [Example G01, 1-[6-(5-chloro-2-{[(3R,4R)-3-hydroxy-1-(methanesulfonyl)piperidin-4-yl]amino}pyrimidin-4-yl)-4-fluoro-1-(propan-2-yl)-1H-benzimidazol-2-yl]ethan-1-one]
